Reference: ChEMBL document CHEMBL5038618, “Discovery of PT-65 as a highly potent and selective Proteolysis-targeting chimera degrader of GSK3 for treating Alzheimer's disease” (Eur J Med Chem, 2021)
Active and inactive are the calls of the source. No cut-off for these calls is given here.

Experiments:
[1] = molecular target: T1, Protein cereblon/Glycogen synthase kinase-3 beta (Homo sapiens, UniProt P49841+Q96SW2); experiment: Protac activity at CRBN/GSK3beta in human SH-SY5Y cells assessed as induction of GSK3beta degradation at 1 uM measured after 24 hrs; format: cell-based
Target sequence in this assay (P49841 whole entry, looked up): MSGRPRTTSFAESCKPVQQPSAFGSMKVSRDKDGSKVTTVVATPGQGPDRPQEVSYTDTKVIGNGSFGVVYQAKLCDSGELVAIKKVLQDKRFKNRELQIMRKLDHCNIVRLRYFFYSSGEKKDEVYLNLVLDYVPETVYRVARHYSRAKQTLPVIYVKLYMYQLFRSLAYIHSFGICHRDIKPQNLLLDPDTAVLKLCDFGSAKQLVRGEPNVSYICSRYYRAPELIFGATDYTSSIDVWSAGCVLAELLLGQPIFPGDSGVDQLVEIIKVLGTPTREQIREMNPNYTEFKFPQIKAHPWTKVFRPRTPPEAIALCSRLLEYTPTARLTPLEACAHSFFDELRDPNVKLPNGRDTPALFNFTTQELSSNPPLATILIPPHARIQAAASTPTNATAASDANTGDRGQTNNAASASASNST
Target sequence in this assay (Q96SW2 whole entry, looked up): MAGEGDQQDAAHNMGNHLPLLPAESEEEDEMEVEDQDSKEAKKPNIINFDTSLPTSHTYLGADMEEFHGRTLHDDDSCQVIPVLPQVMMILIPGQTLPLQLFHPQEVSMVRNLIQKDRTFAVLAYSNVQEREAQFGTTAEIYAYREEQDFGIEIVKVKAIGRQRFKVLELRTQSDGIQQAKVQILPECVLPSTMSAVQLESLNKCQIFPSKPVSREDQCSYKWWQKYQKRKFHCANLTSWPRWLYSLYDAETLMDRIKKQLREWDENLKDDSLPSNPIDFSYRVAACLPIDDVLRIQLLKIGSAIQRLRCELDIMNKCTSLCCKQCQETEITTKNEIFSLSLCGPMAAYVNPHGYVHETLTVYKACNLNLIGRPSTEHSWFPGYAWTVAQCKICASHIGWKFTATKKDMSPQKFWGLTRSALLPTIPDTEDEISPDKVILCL

[2] = molecular target: T2, Protein cereblon/Glycogen synthase kinase-3 alpha (Homo sapiens, UniProt P49840+Q96SW2); experiment: Protac activity at CRBN/GSK3alpha in human SH-SY5Y cells assessed as GSK3alpha degradation at 1 uM pretreated with pomalidomide for 2 hrs followed by compound addition and measured after 24 hrs; format: cell-based
Target sequence in this assay (P49840 2-483 limits assumed): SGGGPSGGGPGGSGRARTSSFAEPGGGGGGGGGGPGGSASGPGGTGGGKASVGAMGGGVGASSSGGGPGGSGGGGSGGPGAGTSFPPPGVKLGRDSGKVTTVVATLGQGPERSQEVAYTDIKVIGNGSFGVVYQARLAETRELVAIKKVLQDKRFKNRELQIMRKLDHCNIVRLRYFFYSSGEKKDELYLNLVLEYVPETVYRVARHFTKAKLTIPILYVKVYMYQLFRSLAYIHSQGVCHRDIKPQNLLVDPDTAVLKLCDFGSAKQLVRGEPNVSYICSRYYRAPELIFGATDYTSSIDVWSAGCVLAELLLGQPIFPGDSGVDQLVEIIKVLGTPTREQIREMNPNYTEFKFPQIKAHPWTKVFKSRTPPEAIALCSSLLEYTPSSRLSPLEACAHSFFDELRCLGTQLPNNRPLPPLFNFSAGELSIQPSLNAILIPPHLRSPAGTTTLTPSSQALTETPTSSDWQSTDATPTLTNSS
Target sequence in this assay (Q96SW2 whole entry partner): as the sequence (Q96SW2 whole entry, looked up) above

SH-SY5Y [3] = experiment: Induction of apoptosis in human SH-SY5Y cells assessed as early apoptotic cells at 62.5 nM preincubated for 2 hrs followed by coincubation with Abeta42 and measured after 72 hrs by Annexin V-FITC/propidium iodide staining based flow cytometry (Rvb=1%); format: functional; conditions: time 74 hrs
SH-SY5Y [4] = experiment: Induction of apoptosis in human SH-SY5Y cells assessed as live cells at 62.5 nM preincubated for 2 hrs followed by coincubation with Abeta42 and measured after 72 hrs by Annexin V-FITC/propidium iodide staining based flow cytometry (Rvb=94.8%); format: functional; conditions: time 74 hrs
SH-SY5Y [5] = experiment: Cytotoxicity against human SH-SY5Y cells assessed as increase in cell viability at 62.5 to 250 nM pretreated for 2 hrs followed by Abeta42 addition and measured after 72 hrs by CCK8 assay; format: functional, cell-based; conditions: dose 62.5-250 nM, time 74.0 hrs
SH-SY5Y [6] = experiment: Induction of apoptosis in human SH-SY5Y cells assessed as late apoptotic cells at 62.5 nM preincubated for 2 hrs followed by coincubation with Abeta42 and measured after 72 hrs by Annexin V-FITC/propidium iodide staining based flow cytometry (Rvb=3.5%); format: functional; conditions: time 74 hrs
Rattus norvegicus [7] = experiment: Improvement in learning and spatial memory in okadaic acid induced Sprague-Dawley rat assessed as increase in time spent in target quadrant at 200 to 600 uM, iv measured after 6 days by Morris water maze test; format: functional, organism-based; conditions: dose 200-600 µM, time 6.0 day
SH-SY5Y [8] = experiment: Effect on tau protein expression in human SH-SY5Y cells assessed as reduction on phosphorylated tau threonine205 residue level at 62.5 to 500 nM pretreated for 2 hrs followed by Abeta42 coincubation for 72 hrs by Westernblot analysis; format: functional, cell-based; conditions: dose 62.5-500 nM, time 74.0 hrs
SH-SY5Y [9] = experiment: Effect on tau protein expression in human SH-SY5Y cells assessed as reduction on phosphorylated tau Ser404 residue level at 62.5 to 500 nM pretreated for 2 hrs followed by Abeta42 coincubation for 72 hrs by Westernblot analysis; format: functional, cell-based; conditions: dose 62.5-500 nM, time 74.0 hrs
[10] = molecular target: T1, Protein cereblon/Glycogen synthase kinase-3 beta; experiment: Protac activity at CRBN/GSK3beta in human SH-SY5Y cells assessed as GSK3beta degradation at 1 uM pretreated with pomalidomide for 2 hrs followed by compound addition and measured after 24 hrs; format: cell-based
Target sequence in this assay (P49841 whole entry, looked up): as the sequence (P49841 whole entry, looked up) above
Target sequence in this assay (Q96SW2 whole entry, looked up): as the sequence (Q96SW2 whole entry, looked up) above

[11] = molecular target: T2, Protein cereblon/Glycogen synthase kinase-3 alpha; experiment: Protac activity at CRBN/GSK3alpha in human SH-SY5Y cells assessed as induction of GSK3alpha protein degradation at 1 uM measured after 24 hrs; format: cell-based
Target sequence in this assay (P49840 2-483 limits assumed): as the sequence (P49840 2-483 limits assumed) above
Target sequence in this assay (Q96SW2 whole entry partner): as the sequence (Q96SW2 whole entry, looked up) above

[12] = molecular target: T2, Protein cereblon/Glycogen synthase kinase-3 alpha; experiment: Protac activity at CRBN/GSK3alpha in human SH-SY5Y cells assessed as induction of GSK3alpha protein degradation measured after 24 hrs; format: cell-based
Target sequence in this assay (P49840 whole entry): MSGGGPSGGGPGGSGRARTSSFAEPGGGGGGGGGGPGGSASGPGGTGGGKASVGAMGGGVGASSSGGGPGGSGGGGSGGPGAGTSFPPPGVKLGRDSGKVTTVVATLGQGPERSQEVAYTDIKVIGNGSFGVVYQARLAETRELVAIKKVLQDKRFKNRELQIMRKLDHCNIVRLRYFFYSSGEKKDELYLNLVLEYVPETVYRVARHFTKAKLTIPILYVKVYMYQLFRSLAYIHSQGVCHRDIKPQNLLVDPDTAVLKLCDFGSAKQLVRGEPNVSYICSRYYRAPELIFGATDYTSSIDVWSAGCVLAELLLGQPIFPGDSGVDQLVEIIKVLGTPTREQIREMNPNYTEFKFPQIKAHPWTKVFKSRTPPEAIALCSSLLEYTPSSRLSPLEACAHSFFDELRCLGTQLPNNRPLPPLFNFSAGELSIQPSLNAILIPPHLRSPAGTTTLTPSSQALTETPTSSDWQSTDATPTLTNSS
Target sequence in this assay (Q96SW2 whole entry): as the sequence (Q96SW2 whole entry, looked up) above

[13] = molecular target: T1, Protein cereblon/Glycogen synthase kinase-3 beta; experiment: Protac activity at CRBN/GSK3beta in human SH-SY5Y cells assessed as induction of GSK3beta degradation measured after 24 hrs; format: cell-based
Target sequence in this assay (P49841 whole entry): as the sequence (P49841 whole entry, looked up) above
Target sequence in this assay (Q96SW2 whole entry): as the sequence (Q96SW2 whole entry, looked up) above

SH-SY5Y [14] = experiment: Induction of GSK3beta degradation in human SH-SY5Y cells assessed as maximum degradation at 1 uM measured after 9 hrs by western blot assay; format: cell-based
[15] = molecular target: Glycogen synthase kinase-3 alpha (Homo sapiens) (UniProt P49840); experiment: Induction of GSK3alpha degradation in human SH-SY5Y cells assessed as recovery of GSK3alpha protein pretreated for 12 hrs followed by compound washout and measured upto 36 hrs by western blot assay; format: cell-based; conditions: time 48.0 hrs
SH-SY5Y [16] = experiment: Induction of GSK3beta degradation in human SH-SY5Y cells assessed as recovery of GSK3beta protein pretreated for 12 hrs followed by compound washout and measured upto 36 hrs by western blot assay; format: cell-based; conditions: time 48.0 hrs
[17] = molecular target: T2, Protein cereblon/Glycogen synthase kinase-3 alpha; experiment: Protac activity at CRBN/GSK3alpha in human SH-SY5Y cells assessed as GSK3alpha degradation at 1 uM pretreated with MG-132 for 2 hrs followed by compound addition and measured after 24 hrs; format: cell-based
Target sequence in this assay (P49840 2-483 limits assumed): as the sequence (P49840 2-483 limits assumed) above
Target sequence in this assay (Q96SW2 whole entry partner): as the sequence (Q96SW2 whole entry, looked up) above

[18] = molecular target: T1, Protein cereblon/Glycogen synthase kinase-3 beta; experiment: Protac activity at CRBN/GSK3beta in human SH-SY5Y cells assessed as GSK3beta degradation at 1 uM pretreated with MG-132 for 2 hrs followed by compound addition and measured after 24 hrs; format: cell-based
Target sequence in this assay (P49841 whole entry, looked up): as the sequence (P49841 whole entry, looked up) above
Target sequence in this assay (Q96SW2 whole entry, looked up): as the sequence (Q96SW2 whole entry, looked up) above

[19] = Downregulation of GSK3alpha expression in human SH-SY5Y cells accessed as fold change in GSK3alpha expression at 1 uM measured after 4 hrs by proteomic analysis; format: functional
[20] = Downregulation of GSK3beta expression in human SH-SY5Y cells accessed as fold change in GSK3beta expression at 1 uM measured after 4 hrs by proteomic analysis; format: functional
SH-SY5Y [21] = experiment: Induction of apoptosis in human SH-SY5Y cells assessed as necrotic cells at 125 nM preincubated for 2 hrs followed by coincubation with Abeta42 and measured after 72 hrs by Annexin V-FITC/propidium iodide staining based flow cytometry (Rvb=0.7%); format: functional; conditions: time 74 hrs
SH-SY5Y [22] = experiment: Induction of apoptosis in human SH-SY5Y cells assessed as live cells at 125 nM preincubated for 2 hrs followed by coincubation with Abeta42 and measured after 72 hrs by Annexin V-FITC/propidium iodide staining based flow cytometry (Rvb=94.8%); format: functional; conditions: time 74 hrs
SH-SY5Y [23] = experiment: Induction of apoptosis in human SH-SY5Y cells assessed as early apoptotic cells at 125 nM preincubated for 2 hrs followed by coincubation with Abeta42 and measured after 72 hrs by Annexin V-FITC/propidium iodide staining based flow cytometry (Rvb=1%); format: functional; conditions: time 74 hrs
SH-SY5Y [24] = experiment: Induction of apoptosis in human SH-SY5Y cells assessed as necrotic cells at 250 nM preincubated for 2 hrs followed by coincubation with Abeta42 and measured after 72 hrs by Annexin V-FITC/propidium iodide staining based flow cytometry (Rvb=0.7%); format: functional; conditions: time 74 hrs
SH-SY5Y [25] = experiment: Induction of apoptosis in human SH--SY5Y cells assessed as late apoptotic cells at 250 nM preincubated for 2 hrs followed by coincubation with Abeta42 and measured after 72 hrs by Annexin V-FITC/propidium iodide staining based flow cytometry (Rvb=3.5%); format: functional; conditions: time 74 hrs
Rattus norvegicus [26] = experiment: Antialzheimer activity against okadaic acid induced Sprague-Dawley rat assessed as reduction in escape latency time to hidden platform at 200 to 600 uM, iv measured upto 5 days by Morris water maze test; format: functional, organism-based; conditions: dose 200-600 µM, time day <=5
[27] = molecular target: T1, Protein cereblon/Glycogen synthase kinase-3 beta; experiment: Protac activity at CRBN/GSK3beta in human SH-SY5Y cells assessed as induction of GSK3beta degradation at 0.1 uM measured after 24 hrs; format: cell-based
Target sequence in this assay (P49841 whole entry, looked up): as the sequence (P49841 whole entry, looked up) above
Target sequence in this assay (Q96SW2 whole entry, looked up): as the sequence (Q96SW2 whole entry, looked up) above

Rattus norvegicus [28] = experiment: Antialzheimer activity against hippocampal tissue of okadaic acid induced Sprague-Dawley rat assessed as reduction on GSK3beta protein level at 200 to 600 uM, iv by western blot assay; format: functional, organism-based; conditions: Hippocampus, dose 200-600 µM
Rattus norvegicus [29] = experiment: Antialzheimer activity against hippocampal tissue of okadaic acid induced Sprague-Dawley rat assessed as reduction on tau protein level at 200 to 600 uM, iv by western blot assay; format: functional, organism-based; conditions: Hippocampus, dose 200-600 µM
Rattus norvegicus [30] = experiment: Antialzheimer activity against hippocampal tissue of okadaic acid induced Sprague-Dawley rat assessed as reduction on GSK3beta protein level at 200 to 600 uM, iv by immunohistochemical staining based analysis; format: functional, organism-based; conditions: Hippocampus, dose 200-600 µM
[31] = molecular target: Glycogen synthase kinase-3 beta (Homo sapiens, UniProt P49841); conditions: dose microM <=0.00975
Glycogen synthase kinase-3 beta, sequence (P49841 whole entry, looked up): as the sequence (P49841 whole entry, looked up) above
Description: Binding affinity to recombinant GSK3beta (unknown origin) assessed as association rate constant upto 0.00975 uM by SPR analysis

Glycogen synthase kinase-3 alpha (Homo sapiens), sequence (P49840 2-483 limits assumed): as the sequence (P49840 2-483 limits assumed) above

Activity [1]: 90.8%
Activity [2]: inactive
Activity [10]: inactive
Activity [11]: 94.3%
DC50 [12]: 0.0283 µM
DC50 [13]: 0.0342 µM
Activity [15]: Active
Activity [17]: inactive
Activity [18]: inactive
Activity [27]: 67.1%
Ka [31]: 2.04 10^6/Ms
SMILES: Nc1ncc(-c2ccc(S(=O)(=O)N3CCN(CCCCc4cn(CCOCCOCCOCCOCCOCCNc5cccc6c5C(=O)N(C5CCC(=O)NC5=O)C6=O)nn4)CC3)cc2)nc1C(=O)Nc1cccnc1 (stereo unspecified)
Activity (SH-SY5Y [3]): 1%
Activity (SH-SY5Y [4]): 79%
Activity (SH-SY5Y [5]): inactive
Activity (SH-SY5Y [6]): 14.3%
Activity (Rattus norvegicus [7]): Active
Activity (SH-SY5Y [8]): Dose-Dependent Effect
Activity (SH-SY5Y [9]): Dose-Dependent Effect
Activity (SH-SY5Y [14]): Active
Activity (SH-SY5Y [16]): Active
fold change (FC) [19]: 0.35
fold change (FC) [20]: 0.33
Activity (SH-SY5Y [21]): 3.3%
Activity (SH-SY5Y [22]): 83%
Activity (SH-SY5Y [23]): 1.2%
Activity (SH-SY5Y [24]): 2.8%
Activity (SH-SY5Y [25]): 6.5%
Activity (Rattus norvegicus [26]): inactive
Activity (Rattus norvegicus [28]): Active
Activity (Rattus norvegicus [29]): Active
Activity (Rattus norvegicus [30]): Active
